# Measured values from patent US5444151A, “Platelet derived growth factor antagonists” (Ludwig Institute for Cancer Research, priority 1992, dated 1995).
# “Also recorded” adds a separate entry of the source. Like-named read-outs stand apart in the source and are kept apart here. Numbered stars: 1 amine (or outer) side, 2 acyl side, 3 side chain; on linkers, the order of the positions; unused ones are H or OH. Square brackets hold non-standard residues; d marks the D form. Ends that are not written are not given here. Peptide text beside a SMILES is read from it. X2 = O=C([C@H](Cc1c(Sc2ccccc2[N+](=O)[O-])[nH]c2ccccc12)N[*:1])[*:2]
# How the values were obtained:
# PDGF-β receptor [1] = molecular target: T1, PDGF-β receptor (Homo sapiens, UniProt P09619); test: Competition with 125I-PDGF-BB for binding to AG1518 fibroblasts (α receptor down regulated by PDGF-AA preincubation)
# T1 construct: cultures of human foreskin fibroblast cell line AG1518; endogenous in cells; host or cells: AG1518 human foreskin fibroblasts (Human Mutant Cell Repository)
# T1 sequence (P09619 33-1106): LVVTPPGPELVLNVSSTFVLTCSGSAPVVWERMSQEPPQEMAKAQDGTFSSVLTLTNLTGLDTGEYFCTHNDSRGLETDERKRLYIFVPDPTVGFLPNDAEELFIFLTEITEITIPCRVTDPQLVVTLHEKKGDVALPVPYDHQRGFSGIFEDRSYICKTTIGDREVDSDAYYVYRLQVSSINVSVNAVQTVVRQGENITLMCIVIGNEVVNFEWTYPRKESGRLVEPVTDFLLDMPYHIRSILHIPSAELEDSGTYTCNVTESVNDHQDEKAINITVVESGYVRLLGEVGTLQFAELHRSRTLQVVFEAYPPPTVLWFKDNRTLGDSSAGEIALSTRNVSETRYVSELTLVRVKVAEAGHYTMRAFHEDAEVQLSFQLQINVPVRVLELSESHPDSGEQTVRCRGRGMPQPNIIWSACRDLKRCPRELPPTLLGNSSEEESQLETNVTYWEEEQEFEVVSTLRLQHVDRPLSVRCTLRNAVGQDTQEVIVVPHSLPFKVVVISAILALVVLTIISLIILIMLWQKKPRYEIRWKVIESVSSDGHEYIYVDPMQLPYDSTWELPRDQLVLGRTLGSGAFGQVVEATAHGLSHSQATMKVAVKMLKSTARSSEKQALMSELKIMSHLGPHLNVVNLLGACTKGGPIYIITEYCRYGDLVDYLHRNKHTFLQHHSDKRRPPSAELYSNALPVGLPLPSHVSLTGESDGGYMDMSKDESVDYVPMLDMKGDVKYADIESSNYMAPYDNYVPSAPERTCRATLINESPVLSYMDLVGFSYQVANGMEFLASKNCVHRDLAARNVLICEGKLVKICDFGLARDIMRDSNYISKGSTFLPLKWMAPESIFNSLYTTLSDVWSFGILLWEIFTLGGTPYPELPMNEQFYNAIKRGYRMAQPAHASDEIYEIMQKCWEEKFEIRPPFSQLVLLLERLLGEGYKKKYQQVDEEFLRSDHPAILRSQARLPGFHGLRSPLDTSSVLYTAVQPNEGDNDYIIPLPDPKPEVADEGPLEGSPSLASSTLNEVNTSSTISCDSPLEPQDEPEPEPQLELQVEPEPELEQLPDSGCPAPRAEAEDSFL
# Description: (§1) In order to test for receptor binding, cultures of human foreskin fibroblast cell line AG1518 (obtained from the Human Mutant Cell Repository), were grown to confluence in Ham's F-12 medium containing 10% newborn calf serum. Those cells which were to be used in analysis of PDGF-β receptor binding were preincubated for 60 minutes at 37° C. in 0.5 ml/well of Ham's F-12 medium, supplemented with 1 mg/ml of bovine serum albumin (BSA), and 50 ng/ml of PDGF-AA. This combination down regulates PDGF-α receptor, as per Claesson-Welsh et al., J. Biol. Chem. 264: 1742-1747 (1989).
# (§2) Cells were prepared for receptor binding analyses by washing with ice cold binding buffer (phosphate buffered saline with 0.9 mM CaCl2, 0.49 mM MgSO4 and 1 mg/ml BSA). The cells were then incubated on ice for 90 minutes with different concentrations (0-100 ug/ml) of synthetic peptides (listed in Table 1, infra), in 0.5 ml of binding buffer per well. […] The labelled ligand was added and then incubated for 60 minutes at 0° C. after which the cells were washed five times with ice cold binding buffer. The washed cells were then lysed for 60 minutes at room temperature in a lysis buffer (1% Triton X-100, 10% glycerol, 20 mM Tris-HCl, pH 7.5). Solubilized radioactivity was determined in a gamma counter. Competing activities of synthetic peptides were compared to standard curves, using unlabelled ligand.
# In Table 2, "+++" means <30 μM; "++" from 30-60 μM; "+" 60-150 μM; and "-", >150 μM.
# PDGF receptors = test: PDGF-BB induced receptor dimerization and autophosphorylation in intact cells; type: cell-based, human; details: PDGF-BB 300 ng/ml, intact fibroblasts
# Description: (§3) Confluent human foreskin fibroblast cells were used (25 cm^2 dishes of cultures). The cells were washed twice with binding buffer, as described supra, with 1 mg/ml BSA added thereto. This was followed by 90 minutes of incubation with one of synthetic peptides 16, […], 20 and […] on ice. […] A dimerization assay was then carried out, basically following Eriksson et al., Growth Factors 6: 1-14 (1992). Essentially, receptors were cross linked for 20 minutes at room temperature in 1 mM BS^3 (Bis(sulfosuccinimidyl)suberate) in lysis buffer (0.5% Triton X-100, 0.5% deoxycholate, […], pH 7.4, 150 mM NaCl, 10 mM EDTA, 1 mM PMSF (phenylmethylsulfonyl fluoride), 1% Trasylol (aprotinin), 100 μM ortovandat, a phosphatase inhibitor). Cross linking was quenched by adding 70 mM methylammonium chloride for 10 minutes. Samples were then subjected to SDS gel electrophoresis in 4% slab gels, followed by electroblotting on to nitrocellulose membranes. The blocked membranes were incubated for two hours with affinity purified phosphotyrosine antibodies (Ek et al., J. Biol. Chem. 259: 1145-11152 (1984)), followed by three washes. Blots were then incubated for 45 minutes with peroxidase conjugated, affinity purified swine antirabbit IgG immunoglobulin. After an additional three washes, complexes were visualized using the ECL developing system.
# EGF receptor [2] = molecular target: T2, EGF receptor (Homo sapiens, UniProt P00533); test: Competition with 125I-EGF for binding to AG1518 fibroblasts
# T2 construct: cultures of human foreskin fibroblast cell line AG1518; endogenous in cells; host or cells: human foreskin fibroblasts (AG1518)
# T2 sequence (P00533 25-1210): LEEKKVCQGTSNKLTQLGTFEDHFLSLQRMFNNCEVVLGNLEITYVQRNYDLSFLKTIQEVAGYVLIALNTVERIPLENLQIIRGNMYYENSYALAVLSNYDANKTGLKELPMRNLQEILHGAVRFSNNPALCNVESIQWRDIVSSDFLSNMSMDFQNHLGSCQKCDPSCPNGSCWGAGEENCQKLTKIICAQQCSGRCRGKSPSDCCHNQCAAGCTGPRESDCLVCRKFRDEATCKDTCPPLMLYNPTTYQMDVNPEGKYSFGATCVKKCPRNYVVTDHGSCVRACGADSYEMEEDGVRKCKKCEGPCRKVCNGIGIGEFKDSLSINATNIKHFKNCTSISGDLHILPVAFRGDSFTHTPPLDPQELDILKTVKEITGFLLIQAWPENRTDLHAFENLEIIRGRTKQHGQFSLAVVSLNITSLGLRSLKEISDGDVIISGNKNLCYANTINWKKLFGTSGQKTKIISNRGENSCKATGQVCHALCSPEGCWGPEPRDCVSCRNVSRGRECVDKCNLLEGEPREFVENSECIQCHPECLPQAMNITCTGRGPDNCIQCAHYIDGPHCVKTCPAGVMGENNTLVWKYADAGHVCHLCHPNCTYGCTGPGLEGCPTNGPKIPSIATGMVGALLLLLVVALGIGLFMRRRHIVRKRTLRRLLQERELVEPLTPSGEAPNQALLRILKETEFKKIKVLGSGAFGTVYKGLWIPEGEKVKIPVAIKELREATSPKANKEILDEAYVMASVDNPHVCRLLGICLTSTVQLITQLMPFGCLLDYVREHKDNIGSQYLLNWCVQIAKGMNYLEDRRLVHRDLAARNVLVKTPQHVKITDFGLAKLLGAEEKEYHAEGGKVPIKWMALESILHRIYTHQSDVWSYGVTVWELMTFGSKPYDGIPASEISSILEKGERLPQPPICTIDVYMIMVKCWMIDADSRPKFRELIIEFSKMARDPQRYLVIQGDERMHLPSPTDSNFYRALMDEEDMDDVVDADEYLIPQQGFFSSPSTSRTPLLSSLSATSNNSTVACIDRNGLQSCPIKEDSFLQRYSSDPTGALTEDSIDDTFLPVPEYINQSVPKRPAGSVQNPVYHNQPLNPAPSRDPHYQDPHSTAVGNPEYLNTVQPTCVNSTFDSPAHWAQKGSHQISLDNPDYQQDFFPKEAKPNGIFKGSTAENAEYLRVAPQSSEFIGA
# Description: as §1, §2
# EGF receptor [3] = molecular target: T2, EGF receptor; test: EGF induced receptor dimerization and autophosphorylation in intact cells; type: cell-based; details: EGF 300 ng/ml, intact fibroblasts
# Description: as §3
# PDGF-α receptor = molecular target: T3, PDGF-α receptor (Homo sapiens, UniProt P16234); test: Competition with 125I-PDGF-AA for binding to AG1518 fibroblasts; details: for Receptor competing activity, PDGF-AA binding (in words): AG1518 cells
# T3 construct: cultures of human foreskin fibroblast cell line AG1518; endogenous in cells; host or cells: AG1518 human foreskin fibroblasts
# T3 sequence (P16234 24-1089): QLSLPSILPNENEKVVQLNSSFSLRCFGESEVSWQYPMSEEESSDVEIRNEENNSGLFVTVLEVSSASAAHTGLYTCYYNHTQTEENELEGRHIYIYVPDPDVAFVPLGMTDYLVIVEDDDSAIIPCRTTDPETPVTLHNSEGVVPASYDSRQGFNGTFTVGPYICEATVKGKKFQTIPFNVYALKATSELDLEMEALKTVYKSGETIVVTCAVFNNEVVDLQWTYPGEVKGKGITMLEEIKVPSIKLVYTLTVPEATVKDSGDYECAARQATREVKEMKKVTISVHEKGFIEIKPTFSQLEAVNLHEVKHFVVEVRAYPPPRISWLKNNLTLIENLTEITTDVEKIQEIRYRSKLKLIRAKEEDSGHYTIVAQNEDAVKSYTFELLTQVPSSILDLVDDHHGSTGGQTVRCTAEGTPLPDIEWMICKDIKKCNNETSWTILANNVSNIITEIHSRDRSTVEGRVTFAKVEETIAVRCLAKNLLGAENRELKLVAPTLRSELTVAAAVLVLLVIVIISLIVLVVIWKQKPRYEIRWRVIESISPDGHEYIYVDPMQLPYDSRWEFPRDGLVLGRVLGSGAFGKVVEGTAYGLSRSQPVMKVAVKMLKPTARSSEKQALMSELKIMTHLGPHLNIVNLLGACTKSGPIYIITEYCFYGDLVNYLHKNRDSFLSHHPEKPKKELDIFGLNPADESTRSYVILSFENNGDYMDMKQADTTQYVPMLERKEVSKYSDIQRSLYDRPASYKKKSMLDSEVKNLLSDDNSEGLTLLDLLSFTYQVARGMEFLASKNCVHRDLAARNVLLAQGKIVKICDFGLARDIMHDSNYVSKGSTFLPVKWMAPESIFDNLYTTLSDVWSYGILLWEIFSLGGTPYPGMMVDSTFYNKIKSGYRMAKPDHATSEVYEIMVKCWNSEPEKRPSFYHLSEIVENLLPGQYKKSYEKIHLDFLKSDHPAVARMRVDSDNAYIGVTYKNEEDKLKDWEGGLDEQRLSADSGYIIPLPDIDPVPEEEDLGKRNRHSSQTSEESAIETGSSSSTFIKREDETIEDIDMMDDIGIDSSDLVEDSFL
# Description: as §1, §2
# [4] = test system: human foreskin fibroblasts; test: Ligand stimulated [3H]thymidine incorporation; type: cell-based; details: for Effect on ligand stimulated [3H]thymidine incorporation (in words): PDGF-AA, PDGF-BB or EGF stimulation; for [3H]thymidine incorporation, Control / [3H]thymidine incorporation, EGF / [3H]thymidine incorporation, PDGF-AA / [3H]thymidine incorporation, PDGF-BB: peptide present; for [3H]thymidine incorporation, Control: no ligand; for [3H]thymidine incorporation, Control / [3H]thymidine incorporation, EGF / [3H]thymidine incorporation, PDGF-AA / [3H]thymidine incorporation, PDGF-BB / [3H]thymidine incorporation, ligand alone: mean of duplicates; for [3H]thymidine incorporation, EGF: stimulated with EGF; for [3H]thymidine incorporation, PDGF-AA: stimulated with PDGF-AA; for [3H]thymidine incorporation, PDGF-BB: stimulated with PDGF-BB; for [3H]thymidine incorporation, ligand alone: no peptide (unstimulated control 483 cpm)
# Description: The possible role of peptide 16T as an antagonist for PDGF activity in vivo was investigated. Following the methodology of Betsholtz et al., J. Cell Physiol 118: 203-210 (1984), the disclosure of which is incorporated by reference, [^3 H] thymidine incorporation by human fibroblasts in the presence of various peptides was studied.
# PDGF-β receptor [5] = molecular target: T4, PDGF-β receptor (Sus scrofa, UniProt A0A8W4FFG6); test: Autophosphorylation and dimerization of partially purified PDGF-β receptor; type: biochemical, porcine
# T4 construct: from Triton X-100 solubilized porcine uterus membranes and purified up to the Mono-Q chromatography step; from tissue; host or cells: porcine uterus membranes
# T4 sequence (A0A8W4FFG6 32-1102): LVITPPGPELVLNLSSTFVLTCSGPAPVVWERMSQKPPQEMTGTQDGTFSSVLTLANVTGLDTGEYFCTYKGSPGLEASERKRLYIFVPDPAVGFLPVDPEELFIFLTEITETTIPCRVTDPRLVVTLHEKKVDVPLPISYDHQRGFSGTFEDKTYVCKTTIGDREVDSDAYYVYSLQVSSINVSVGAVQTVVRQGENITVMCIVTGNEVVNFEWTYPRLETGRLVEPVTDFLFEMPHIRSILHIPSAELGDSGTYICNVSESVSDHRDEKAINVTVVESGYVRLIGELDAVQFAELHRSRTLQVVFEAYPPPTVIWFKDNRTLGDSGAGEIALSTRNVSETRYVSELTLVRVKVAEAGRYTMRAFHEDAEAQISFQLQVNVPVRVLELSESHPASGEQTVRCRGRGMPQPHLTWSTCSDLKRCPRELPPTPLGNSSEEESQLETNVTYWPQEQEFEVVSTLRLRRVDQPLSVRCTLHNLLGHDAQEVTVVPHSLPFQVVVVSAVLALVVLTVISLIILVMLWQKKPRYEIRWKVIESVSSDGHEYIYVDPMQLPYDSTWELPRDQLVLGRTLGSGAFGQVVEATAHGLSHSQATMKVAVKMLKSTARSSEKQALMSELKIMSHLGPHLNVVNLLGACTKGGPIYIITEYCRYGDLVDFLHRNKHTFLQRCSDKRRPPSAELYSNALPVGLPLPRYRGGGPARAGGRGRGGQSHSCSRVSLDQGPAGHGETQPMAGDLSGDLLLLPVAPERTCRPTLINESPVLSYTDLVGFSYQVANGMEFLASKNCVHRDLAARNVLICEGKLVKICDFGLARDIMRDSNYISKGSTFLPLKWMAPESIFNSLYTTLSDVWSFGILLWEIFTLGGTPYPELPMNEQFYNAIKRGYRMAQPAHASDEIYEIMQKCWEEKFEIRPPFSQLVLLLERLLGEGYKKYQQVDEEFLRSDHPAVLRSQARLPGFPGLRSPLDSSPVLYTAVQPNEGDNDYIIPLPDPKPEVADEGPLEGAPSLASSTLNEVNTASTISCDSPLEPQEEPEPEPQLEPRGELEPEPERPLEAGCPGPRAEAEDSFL
# Description: A preparation of PDGF-β receptor, from Triton X-100 solubilized porcine uterus membranes and purified up to the Mono-Q chromatography step of Ronnstrand et al., J. Biol. Chem. 262: 2929-2932 (1987), was made, and the autophosphorylation assay described therein was carried out.
# Approximately 100 ng of the receptor was incubated for 5 minutes at 0° C. with peptide 16T or peptide 20, at different concentrations. […] Four ul of 150 μM [^32 P]ATP (containing 5×10^6 cpm of radioactivity) was added, followed by an additional 10 minutes of incubation at 0° C. Incorporation of radioactivity was terminated by adding 5 μl of 15 mM unlabelled ATP and 5 μl of 40 mM phenylphosphate. Samples were cross linked by incubating with 0.5 mM DSS (12.5 mM, in dimethyl sulfoxide) for 30 minutes at room temperature. The cross linking reaction was blocked by adding 50 mM methylammonium chloride, 20 mM Hepes, pH 7.4.
# [6] = AG1518 cells, 0° C., asterisk = homogeneous peptide, otherwise crude
# [7] = AG1518 cells, competing activity
# [8] = read-out: Inhibitory Activity: ability to compete with PDGF-BB for binding (peptide needed to decrease binding by 50%), AG1518 cells, 0° C., asterisk = homogeneous peptide, otherwise crude
compound,measurement,setting,value
CC[C@H](C)[C@H](NC(=O)[C@H](CCC(=O)O)NC(=O)[C@H](Cc1c(Sc2ccccc2[N+](=O)[O-])[nH]c2ccccc12)NC(=O)[C@@H](NC(=O)[C@H](CC(C)C)NC(=O)[C@H](Cc1ccccc1)NC(=O)[C@H](CC(N)=O)NC(=O)[C@H](C)N)C(C)C)C(=O)N[C@H](C(=O)N[C@@H](CCCNC(=N)N)C(=O)N[C@@H](CCCCN)C(=O)N[C@@H](CCCCN)C(=O)N1CCC[C@H]1C(=O)O)C(C)C [*16NPS] (H-ANFLV[X2]EIVRKKP-OH; N-terminus and C-terminus assumed),IC50,PDGF-β receptor [1]; [6],< 30 µM
same,"Receptor competing activity, PDGF-BB binding (in words)","PDGF-β receptor [1]; AG1518 cells, general text statements on competing activity placed here, listed as 16 NPS",more active as an antagonist than peptide 16
same,"Receptor competing activity, PDGF-BB binding (in words)","PDGF-β receptor [1]; AG1518 cells, general text statements on competing activity placed here, listed as 16NPS",increased activity as an antagonist
"CC[C@H](C)[C@H](NC(=O)[C@H](Cc1ccccc1)NC(=O)[C@H](C)NC(=O)[C@@H](N)CCC(=O)O)C(=O)N[C@@H](CCCCN)C(=O)N[C@@H](Cc1c(-c2ccc(SC)cc2)[nH]c2ccccc12)C(=O)N[C@@H](CC(C)C)C(=O)N[C@H](C(=O)N[C@@H](CCCNC(=N)N)C(=O)N[C@@H](CC(N)=O)C(=O)N[C@@H](CCCCN)C(=O)N[C@H](C(=O)N1CCC[C@H]1C(=O)O)C(C)C)C(C)C [*20T, reference compound]",Effect on PDGF induced autophosphorylation and dimerization (in words),PDGF receptors,no effect whatsoever
same,Competition for binding of 125I-EGF to the EGF receptor (in words),EGF receptor [2],"none of peptides 16, 16T, 20 and 20T compete"
same,Effect on EGF induced autophosphorylation and dimerization (in words),EGF receptor [3],no effect whatsoever
same,"Receptor competing activity, PDGF-AA binding (in words)",PDGF-α receptor,did not compete for binding
same,Effect on ligand stimulated [3H]thymidine incorporation (in words),[4],some non specific inhibition activity
same,"[3H]thymidine incorporation, Control",[4],456 cpm
same,"[3H]thymidine incorporation, EGF",[4],515 cpm
same,"[3H]thymidine incorporation, PDGF-AA",[4],489 cpm
same,"[3H]thymidine incorporation, PDGF-BB",[4],836 cpm
same,"Receptor competing activity, PDGF-BB binding (in words)",PDGF-β receptor [1]; [7],did not compete for binding
ANFLVWEIVRKKP [Peptide 16],Amount of peptide giving complete inhibition of dimerization and autophosphorylation,"PDGF-β receptor [5]; nearly complete for 16T, complete for 16, about 100 ng receptor, 100 ng PDGF-BB, 40 ul",20 µg
same,Effect on dimerization and autophosphorylation (in words),PDGF-β receptor [5]; peptide 20: concentrations up to 20 μg,intermediate effect
same,Competition for binding of 125I-EGF to the EGF receptor (in words),EGF receptor [2],"none of peptides 16, 16T, 20 and 20T compete"
same,"Receptor competing activity, PDGF-AA binding (in words)",PDGF-α receptor,marginal effect
same,"Receptor competing activity, PDGF-AA binding (in words)",PDGF-α receptor; listed as 16*,very low activity
same,Effect on ligand stimulated [3H]thymidine incorporation (in words),[4],"did inhibit PDGF-AA and PDGF-BB induced mitogenicity, but also EGF induced mitogenicity"
same,"[3H]thymidine incorporation, Control",[4],241 cpm
same,"[3H]thymidine incorporation, EGF",[4],216 cpm
same,"[3H]thymidine incorporation, PDGF-AA",[4],242 cpm
same,"[3H]thymidine incorporation, PDGF-BB",[4],281 cpm
same,IC50,PDGF-β receptor [1]; [6],< 30 µM
same,"Receptor competing activity, PDGF-BB binding (in words)",PDGF-β receptor [1]; [7],maintained most of the receptor competing activity; also recorded: marginal effect
ANFLVWPPCVEVQLRPVQVRKIEIVRKKP [Peptide 7],IC50,"PDGF-α receptor; α receptor, read-out: 50% competition for receptor binding",~6 µM
same,IC50,PDGF-β receptor [1]; [8],< 30 µM
same,IC50,"PDGF-β receptor [1]; β receptor, read-out: 50% competition for receptor binding",~6 µM
CRPTQVQLRPVQVRKIEIVRKKP [Peptide 2],IC50,PDGF-β receptor [1]; [8],> 150 µM
"EAFIKWLVRNKVP [*20, reference compound]",IC50,PDGF-β receptor [1]; [6],> 150 µM
"EGF: ligand of the EGF receptor, used as control growth factor","[3H]thymidine incorporation, ligand alone",[4],2591 cpm
KIEIVRKKPIFKKATVTLEDHLASKC [Peptide 1],IC50,PDGF-β receptor [1]; [8],> 150 µM
PDGF-AA: platelet derived growth factor A chain homodimer,"[3H]thymidine incorporation, ligand alone",[4],677 cpm
same,Stimulation of [3H]thymidine incorporation by ligand,"[4]; no peptide, versus unstimulated control",lower stimulation
WPPCVEVQLRPVQVRKIEIVRKKP [Peptide 8],"Receptor competing activity, PDGF-BB binding (in words)",PDGF-β receptor [1]; [7],nearly devoid of activity
same,IC50,PDGF-β receptor [1]; [8],> 150 µM
